Literature values in patent US20220175800A1, “DISPERSIBLE TABLET COMPOSITION” (PTC THERAPEUTICS INC., priority 2019, published 2022).

For `CC(=O)OCC(=O)[C@@]12N=C(C)O[C@@H]1C[C@H]1[C@@H]3CCC4=CC(=O)C=C[C@]4(C)[C@H]3[C@@H](O)C[C@@]12C` [Deflazacort, (11β,16β)-21-(acetyloxy)11-hydroxy-2′-methyl-5′H-pregna-1,4-dieno[17,16-d]oxazole-3,20-dione], the Solubility in water is given as “poorly soluble in water”.
